Reference: article PMC5920042, “KH176 Safeguards Mitochondrial Diseased Cells from Redox Stress-Induced Cell Death by Interacting with the Thioredoxin System/Peroxiredoxin Enzyme Machinery” (Scientific Reports, 2018)
Like-named read-outs stand apart in the source and are kept apart here.

What was measured:
[1] = Single dose pharmacokinetics and bioavailability study; type: in vivo, male Sprague Dawley rats; details: male, Sprague Dawley, rat, plasma
Protocol: (§1) Pharmacokinetics and toxicokinetics measurements were performed by the commercial Contract Research Organizations Sai Life Sciences and WuXi AppTec, respectively, according to their standard protocols and in accordance with relevant guidelines and regulations. C57 BL/6 mice, Sprague Dawley rats, and Beagle dogs were studied.

P4 cell line [2] = experiment: Cellular ROS assay (DCFH-DA); type: cell-based, human; details: Homo sapiens; P4 cells, 24 h compound treatment
Protocol: The cells were then treated for 72 h (or shorter as indicated) with culture medium containing semi-logarithmic dilutions of the test compound. Alternatively, 3 × 10^3 cells/well were seeded when cells were treated for 24 h only. At the end of the incubation period, cells were loaded with 40 µM DCFH-DA (#D6883, Sigma-Aldrich). in M199 without phenol red for 30 min. The excess of the dye was washed with ice-cold M199 without phenol red and the cells were lysed with 100 µl/well of ice-cold 0.2% Triton X-100 in M199 without phenol red after 10 min incubation in ice. Cellular debris was spun down by centrifugation at 2600 g, 5 min, +4 °C and 90 µl/well of cell lysate were transferred to a black 96-wells plate and DCF fluorescence was measured on a scanning microplate reader (BMG FLUOstar Omega; Ex. 480 nm, Em. 520 nm).

[3] = 28-day repeat oral dose toxicity study, toxicokinetics; type: in vivo, Beagle dogs; details: Beagle, dog, plasma, po; for AUC(0-t): read-out: AUC0–24 h; for Cmax: read-out: Cmax
Protocol: as §1

[4] = test system: primary human skin fibroblasts; experiment: CumOOH induced lipid peroxidation (bodipy 581/591 C11); type: cell-based; details: Homo sapiens, Skin fibroblast; 30 µM cumOOH, bodipy 581/591 C11
Protocol: The cells were seeded at a density of 3 × 10^3 cells/well into 96-wells black plates. After 24 h, the cells were coincubated with 500 nM bodipy 581/591 C11 (#D3861, Thermo Fisher) and different amounts of KH compound in M199 without phenol red. This medium was used in all subsequent washes and incubations. After 30 min. incubation the cells were washed twice and subsequently incubated with 30 μM cumene hydroperoxide (cumOOH). For background subtractions cells with the dye but without cumOOH were used. After 30 minutes incubation and two washes oxidized bodipy 581/591 C11 was quantified on an automated bioimager (BD Pathway 855), by using a 20x objective and Ex. 488/10 nm, Em. FURA/FITC. Total cellular fluorescence per well was normalized on the number of cellular pixels/well and normalized on the incubation with probe and cumOOH but without compound (vehicle set as 100%). Experiments were performed at least three times with 3 wells per experiment.

[5] = test system: primary human skin fibroblasts; experiment: Cellular superoxide detection by HEt oxidation; type: cell-based; details: 24 h compound
Protocol: The cells were seeded at a density of 3 × 10^3 cells/well into 96-wells black plates. After 24 h, the cells were incubated with different amounts of KH176(m) for 24 h. For the cellular superoxide measurements cells were then washed with M199 without phenol red and incubated with HEt (#D11347, ThermoFisher) in this same medium for 10 minutes. […] Total cellular fluorescence per well was normalized on the incubation with the probe but without compound (vehicle set as 100%). Experiments were performed at least three times with 3 wells per experiment.

[6] = Single dose pharmacokinetics and bioavailability study; type: in vivo, male C57BL/6 mice; details: male, mouse
Protocol: as §1

P4 cell line [7] = experiment: Radical-Scavenging Capacity assay (CM-H2DCFDA, H2O2 or KO2); type: cell-based, human; details: P4 cells, 100 µM H2O2 or 1 mM KO2 (text: KOH), 3 µM compound
Protocol: Cells were seeded at a density of 4 × 10^3 cells/well into 96-wells black plates. After 24 h the cells were loaded with 5 µM CM-H2DCFDA in M199 without phenol red for 20 min. The dye excess was washed with M199 without phenol red and immediately after, cells were treated acutely with different concentrations of the test compounds in M199 without phenol red. To generate radicals, 100 µM H2O2 or 1 mM KO2 were injected to the compound-treated cells and CM-DCF fluorescence was measured every 2 min for 70 cycles on a scanning microplate reader (BMG FLUOstar Omega; Ex. 480 nm, Em. 520 nm). The area under the generated curves was calculated using the Origin 6.1 software (OriginLab).

[8] = female, 10 mg/kg, KH176 10 mg/kg/dose BID oral, F, Day 1, plasma
[9] = female, 10 mg/kg, KH176 10 mg/kg/dose BID oral, F, Day 28, plasma
[10] = female, 25 mg/kg, KH176 25 mg/kg/dose BID oral, F, Day 1, plasma
[11] = female, 25 mg/kg, KH176 25 mg/kg/dose BID oral, F, Day 28, plasma
[12] = female, 62.5 mg/kg, KH176 62.5 mg/kg/dose BID oral, F, Day 1, plasma
[13] = female, 62.5 mg/kg, KH176 62.5 mg/kg/dose BID oral, F, Day 28, plasma
[14] = male, 10 mg/kg, KH176 10 mg/kg/dose BID oral, M, Day 1, plasma
[15] = male, 10 mg/kg, KH176 10 mg/kg/dose BID oral, M, Day 28, plasma
[16] = male, 25 mg/kg, KH176 25 mg/kg/dose BID oral, M, Day 1, plasma
[17] = male, 25 mg/kg, KH176 25 mg/kg/dose BID oral, M, Day 28, plasma
[18] = male, 62.5 mg/kg, KH176 62.5 mg/kg/dose BID oral, M, Day 1, plasma
[19] = male, 62.5 mg/kg, KH176 62.5 mg/kg/dose BID oral, M, Day 28, plasma
[20] = C57BL/6, iv, KH176 2 mg/kg i.v., plasma
[21] = C57BL/6, po, KH176 10 mg/kg p.o., plasma

AUC(0-inf) ([1]; iv, KH176 2 mg/kg i.v.): 518 ng·h/mL | AUC(0-t) ([1]; iv, KH176 2 mg/kg i.v.): 510 ng·h/mL | clearance ([1]; iv, KH176 2 mg/kg i.v.): 64.6 mL/min/kg | half-life ([1]; iv, KH176 2 mg/kg i.v.): 156 min | C0 ([1]; iv, KH176 2 mg/kg i.v., back extrapolated): 344 ng/mL | Vd ([1]; iv, KH176 2 mg/kg i.v., read-out: Vss): 7 L/kg | bioavailability ([1]; oral, 10 mg/kg p.o. vs 2 mg/kg i.v., from AUClast, read-out: F (oral bioavailability)): 74% | AUC(0-inf) ([1]; po, KH176 10 mg/kg p.o.): 1930 ng·h/mL | AUC(0-t) ([1]; po, KH176 10 mg/kg p.o.): 1870 ng·h/mL | Cmax ([1]; po, KH176 10 mg/kg p.o.): 594 ng/mL | Tmax ([1]; po, KH176 10 mg/kg p.o., read-out: Tmax): 40.2 min | IC50 (P4 cell line [2]): 22.5 µM | Kp ([6]; C57BL/6, brain, iv, KH176 2 mg/kg i.v., read-out: Brain to Plasma ratio, range (1–8 hours)): 1 to 25 | Kp ([6]; C57BL/6, brain, po, KH176 10 mg/kg p.o., read-out: Brain to Plasma ratio, range (1–8 hours)): 0.4 to 0.8 | Kp ([6]; C57BL/6, heart, iv, KH176 2 mg/kg i.v., read-out: Heart to Plasma ratio, range (1–8 hours)): 4.3 to 28.3 | Kp ([6]; C57BL/6, heart, po, KH176 10 mg/kg p.o., read-out: Heart to Plasma ratio, range (1–8 hours)): 2.4 to 5.7 | AUC(0-inf) [6, 20]: 191 ng·h/mL | AUC(0-t) [6, 20]: 181 ng·h/mL | clearance [6, 20]: 175 mL/min/kg | half-life [6, 20]: 84 min | C0 ([6]; C57BL/6, iv, KH176 2 mg/kg i.v., plasma, back extrapolated): 543 ng/mL | Kp ([6]; C57BL/6, liver, iv, KH176 2 mg/kg i.v., read-out: Liver to Plasma ratio, range (1–8 hours)): 10.5 to 29.3 | Kp ([6]; C57BL/6, liver, po, KH176 10 mg/kg p.o., read-out: Liver to Plasma ratio, range (1–8 hours)): 5.7 to 12.1 | Vd ([6]; C57BL/6, plasma, iv, KH176 2 mg/kg i.v., read-out: Vss): 9.5 L/kg | bioavailability ([6]; C57BL/6, plasma, oral, 10 mg/kg p.o. vs 2 mg/kg i.v., from AUClast, read-out: F (oral bioavailability)): 68% | AUC(0-inf) [6, 21]: 624 ng·h/mL | AUC(0-t) [6, 21]: 618 ng·h/mL | Cmax [6, 21]: 414 ng/mL | Tmax ([6]; C57BL/6, po, KH176 10 mg/kg p.o., plasma, read-out: Tmax): 15 min | Kp ([6]; C57BL/6, skeletal muscle, iv, KH176 2 mg/kg i.v., read-out: Skeletal muscle to Plasma ratio, range (1–8 hours)): 8.7 to 20.1 | Kp ([6]; C57BL/6, skeletal muscle, po, KH176 10 mg/kg p.o., read-out: Skeletal muscle to Plasma ratio, range (1–8 hours)): 0.8 to 5.2
Structure (SMILES): Cc1c(C)c2c(c(C)c1O)CC[C@@](C)(C(=O)N[C@@H]1CCCNC1)O2.Cl [KH176, (S)-6-hydroxy-2,5,7,8-tetramethyl-N-((R)-piperidin-3-yl)chroman-2-carboxamide hydrochloride]
half-life [3, 8]: 84 min | AUC(0-t) [3, 8]: 8840 ng·h/mL | Cmax [3, 8]: 1150 ng/mL | half-life [3, 9]: 120 min | AUC(0-t) [3, 9]: 14600 ng·h/mL | Cmax [3, 9]: 1540 ng/mL | half-life [3, 10]: 108 min | AUC(0-t) [3, 10]: 41900 ng·h/mL | Cmax [3, 10]: 4150 ng/mL | half-life [3, 11]: 150 min | AUC(0-t) [3, 11]: 40000 ng·h/mL | Cmax [3, 11]: 5190 ng/mL | half-life [3, 12]: 102 min | AUC(0-t) [3, 12]: 63100 ng·h/mL | Cmax [3, 12]: 8150 ng/mL | half-life [3, 13]: 138 min | AUC(0-t) [3, 13]: 85500 ng·h/mL | Cmax [3, 13]: 10200 ng/mL | half-life [3, 14]: 84 min | AUC(0-t) [3, 14]: 16400 ng·h/mL | Cmax [3, 14]: 2030 ng/mL | half-life [3, 15]: 108 min | AUC(0-t) [3, 15]: 19000 ng·h/mL | Cmax [3, 15]: 2330 ng/mL | half-life [3, 16]: 108 min | AUC(0-t) [3, 16]: 42600 ng·h/mL | Cmax [3, 16]: 4290 ng/mL | half-life [3, 17]: 120 min | AUC(0-t) [3, 17]: 39900 ng·h/mL | Cmax [3, 17]: 4540 ng/mL | half-life [3, 18]: 108 min | AUC(0-t) [3, 18]: 91500 ng·h/mL | Cmax [3, 18]: 10100 ng/mL | half-life [3, 19]: 144 min | AUC(0-t) [3, 19]: 102000 ng·h/mL | Cmax [3, 19]: 12600 ng/mL | IC50 [4]: 64 µM | Effect on basal cellular superoxide levels (HEt) [5]: no effect | Reduction of H2O2-induced radicals and O2.- (CM-H2DCFDA oxidation) (P4 cell line [7]): able to reduce the levels of both radicals
